pIC50: −log10 of the molar value.
Each compound was assayed on MCF7 (assay: Antimitotic activity in human MCF7 cells assessed as mitotic arrest after 16 to 20 hrs by ELISA method).
Format: functional, cell-based
Compound `CC(=O)O[C@@H]1[C@H](OC/C2=C/[C@@H]3[C@@H](C(C)C)CC=C(C)[C@@H]3C[C@H](OC(=O)/C=C/c3cn(C)cn3)[C@]3(C)C=C[C@@]2(OCCO)O3)OC[C@@H](O)[C@H]1O` has a pIC50 of 7.70.
`CC(=O)O[C@@H]1[C@H](OC/C2=C/[C@@H]3[C@@H](C(C)C)CC=C(C)[C@@H]3C[C@H](OC(=O)/C=C/c3cn(C)cn3)[C@]3(C)C=C[C@@]2(OCC(C)(C)CO)O3)OC[C@@H](O)[C@H]1O` showed a pIC50 of 7.10.
In the case of `CO[C@]12C=C[C@](C)(O1)[C@@H](OC(=O)/C=C/c1cn(C)cn1)C[C@@H]1[C@H](/C=C\2CO[C@@H]2OC[C@@H](O)[C@@H](O)[C@@H]2OC(C)=O)[C@@H](C(C)C)C[C@@H]2O[C@@]21C`, the pIC50 was 7.52.
Work on `CCO[C@]12C=C[C@](C)(O1)[C@@H](OC(=O)/C=C/c1cn(C)cn1)C[C@H]1C(CO)=CC[C@H](C(C)C)[C@H]1/C=C\2CO[C@@H]1OC[C@@H](O)[C@@H](O)[C@@H]1OC(C)=O` yielded a pIC50 of 7.70.
`CO[C@]12C=C[C@](C)(O1)[C@@H](OC(=O)/C=C/c1cn(C)cn1)C[C@@H]1[C@H](/C=C\2CO[C@@H]2OC[C@@H](O)[C@@H](O)[C@@H]2OC(C)=O)[C@@H](C(C)C)C[C@H]2O[C@@]12C` showed a pIC50 of 6.52.
`CO[C@]12CC[C@](C)(O1)[C@@H](OC(=O)CCc1cn(C)cn1)C[C@@H]1[C@H](/C=C\2CO[C@@H]2OC[C@@H](O)[C@@H](O)[C@@H]2OC(C)=O)[C@@H](C(C)C)CC[C@@H]1C` showed a pIC50 of under 5.00.
With `CO[C@]12C=C[C@](C)(O1)[C@@H](OC(=O)CCc1cn(C)cn1)C[C@H]1C(C)=CC[C@H](C(C)C)[C@H]1/C=C\2CO[C@@H]1OC[C@@H](O)[C@@H](O)[C@@H]1OC(C)=O` the pIC50 was 4.70.
With `CO[C@]12C=C[C@](C)(O1)[C@@H](OC(=O)/C=C/c1cn(C)cn1)C[C@@H]1[C@H](/C=C\2CO[C@@H]2OC[C@@H](O)[C@@H](O)[C@@H]2OC(C)=O)[C@@H](C(C)C)C=C[C@@]1(C)O` [CARIBAEOSIDE] the pIC50 was 4.70.
With `CC(=O)O[C@@H]1[C@H](OC/C2=C/[C@@H]3[C@@H](C(C)C)CC=C(C)[C@@H]3C[C@H](OC(=O)/C=C/c3cn(C)cn3)[C@]3(C)C=C[C@@]2(O)O3)OC[C@@H](O)[C@H]1O` [DESMETHYLELEUTHEROBIN] the pIC50 was 7.70.
`CO[C@]12C=C[C@](C)(O1)[C@@H](OC(=O)/C=C/c1cn(C)cn1)C[C@H]1C(C)=CC[C@H](C(C)C)[C@H]1/C=C\2CO[C@@H]1OC[C@@H](O)[C@@H](O)[C@@H]1OC(C)=O` [ELEUTHEROBIN] gave a pIC50 of 7.00.
In the case of `CO[C@]12C=C[C@](C)(O1)[C@@H](OC(=O)/C=C/c1cn(C)cn1)C[C@H]1C(C)=CC[C@H](C(C)C)[C@H]1/C=C\2CO[C@@H]1OC[C@@H](O)[C@@H](OC(C)=O)[C@@H]1O` [ISOELEUTHEROBIN A], the pIC50 was 7.30.
Compound `CO[C@]12CC[C@](C)(O1)[C@@H](OC(=O)/C=C/c1cn(C)cn1)C[C@@H]1[C@H](/C=C\2CO[C@@H]2OC[C@@H](O)[C@@H](O)[C@@H]2OC(C)=O)[C@@H](C(C)C)CC[C@@H]1C` [TETRAHYDROELEUTHEROBIN] has a pIC50 of 6.70.

— ChEMBL document CHEMBL1914332, “Marine diterpene glycosides” (Bioorg Med Chem, 2011)
